Measured values: PubChem BioAssay (NCI)
Several values for one entry are separate records, joined by “and”; a condition that tells them apart may be missing. Identical values can stand only once.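 Growth conditions: 96-well plates. Treatment: test compound, 48 hours, 5 concentrations. Analysis: linear interpolation between bracketing concentrations; unreached endpoints set to highest concentration. Abbreviation: GI50, concentration required for 50% inhibition of growth. TGI: concentration producing complete growth inhibition.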 *1 amine or outer side, *2 acyl side, *3 side chain or, on linkers, in order; H or OH if unused. Where a SMILES comes first, the peptide text is derived from it. Bridges are numbered along the chain shown (N, C = ends). Roman numbers before positions name the chains, in order. [ ]: non-standard residue; d: D form. Actinocin(9to1) = Cc1c2oc3c(C)ccc(C(=O)[*:1])c3nc-2c(C(=O)[*:2])c(N)c1=O; NMeT = CN[CH](C(=O)O)[CH](C)O; Sar = CNCC(=O)O

How the values were obtained:
Assay in all cases: NCI tumour cell line growth inhibition, 48 h
[1] = system: BT-549 breast
[2] = system: HCT-15 colon
[3] = system: HOP-92 NSCLC
[4] = system: KM12 colon
[5] = system: LOX IMVI melanoma
[6] = system: NCI-H522 lung
[7] = system: SR leukemia
[8] = system: SK-OV-3 ovarian

SMILES | TGI [1] [µM] | TGI [2] [µM] | TGI [3] [µM] | TGI [4] [µM] | TGI [5] | TGI [6] | TGI [7] | GI50 [1] [µM] | GI50 [2] | GI50 [3] [µM] | GI50 [4] [µM] | GI50 [5] [µM] | GI50 [6] [µM] | GI50 [8] | TGI [8] [µM] | GI50 [7]
Cc1cc(=O)oc2c(C)c(O)ccc12 | > 100 | > 100 | > 100 | > 100 | > 100 µM | > 100 µM | > 100 µM | – | – | – | – | – | – | – | – | –
COC(=O)CC[C@]1(C)O[C@H]2[C@H]([C@@H](C)CCCC(C)=O)OC(=O)[C@@H]2C[C@H]1O | > 100 | > 100 | > 100 | > 100 | > 100 µM | > 100 µM | > 100 µM | > 100 | > 100 µM | > 100 | > 100 | > 100 | > 100 | > 100 µM | > 100 | > 100 µM
COc1ccc(NC([Se])=NC23CC4CC(CC(C4)C2)C3)cc1 | 2.32 | 11.1 | 14.2 | 5.54 | 5.09 µM | 4.35 µM | > 100 µM | 0.874 | 1.57 µM | 2.34 | 1.85 | 1.91 | 1.23 | 2.45 µM | 7.43 | 1.67 µM
O=C1CC(=O)N(C(=O)c2nn(-c3ccc(Cl)cc3)cc2O)N1 | > 64.5 | > 100 | > 100 | > 100 | > 100 µM | 3.17 µM | 5.04 µM | 0.296 | 0.486 µM | 0.508 | 1.03 | 1.15 | 0.299 | 1.85 µM | > 100 | 0.26 µM
COc1cc2c(cc1OC)-c1ccc3cc4c(cc3c1N(CCCn1ccnc1)C2)OCO4 | 17.9 | > 100 | 32.5 | 31.8 | 4.7 µM | 3.35 µM | > 100 µM | 3.78 | 58.3 µM | 3.58 | 6.05 | 1.62 | 0.565 | 3.84 µM | 26.8 | 0.579 µM
O=C(O)CCCSc1ccccc1 | > 100 | > 100 | > 100 | > 100 | > 100 µM | > 100 µM | > 100 µM | – | – | – | – | – | – | – | > 100 | –
Cc1c2oc3c(C)ccc(C(=O)NC4C(=O)NC(C(C)C)C(=O)N5CCCC5C(=O)N(C)CC(=O)N(C)C(C(C)O)C(=O)OC4C)c3nc-2c(C(=O)NC2C(=O)NC(C(C)C)C(=O)N3CCCC3C(=O)N(C)CC(=O)N(C)C(C(C)O)C(=O)OC2C)c(N)c1=O (stereo not drawn) (I: TVP[Sar][NMeT] / II: TVP[Sar][NMeT]; ester I:1-I:C, II:1-II:C; linker I:N-II:N via Actinocin(9to1); configuration not given here) | – | > 100 | > 71.4 | > 100 | 7.84 µM and > 1 µM | 1.53 µM and > 1 µM | 5.35 µM and > 1 µM | – | 14.1 µM and > 1 µM | – | – | – | – | 5.75 µM and > 1 µM | > 100 | 1.1 µM and 0.187 µM
COc1ccc(-c2oc(=O)ccc2-c2cc(OC)c(OC)c(OC)c2)cc1O | > 38.5 | > 100 | > 80.4 | > 48.7 | 45.3 µM | 3.45 µM | > 23.8 µM | 1.52 | 0.769 µM | 8.61 | 0.507 | 1.65 | 0.425 | 1.65 µM | > 42.6 | 0.267 µM
C=C1C(C2(C)C(OC(C)=O)CC(=O)OC(C)(COC(C)=O)C2CC(=O)OC)C(OC=O)C(OC(=O)C(O)C(C)CC)C2(C)C(c3ccoc3)CC(=O)C12O (stereo not drawn) | > 30.5 | > 100 | > 100 | > 100 | > 100 µM | > 100 µM | > 100 µM | – | – | – | – | – | – | – | > 100 | –
CC(=C/C=C/C=C(C)\C=C\C=C(\C)C(=O)O)/C=C/C=C(/C)C(=O)O | > 100 | > 100 | > 100 | > 100 | > 100 µM | > 100 µM | > 100 µM | – | – | – | – | – | – | – | > 100 | –
CC(=O)N1C/C(=C/c2ccc(Cl)cc2)C(=O)/C(=C/c2ccc(Cl)cc2)C1 | 1.32 | 1.52 | 4.06 | 0.676 | 0.395 µM | 2.83 µM | – | 0.435 | 0.446 µM | 1.52 | 0.255 | 0.184 | 1.35 | 1.61 µM | 3.39 | –
Nc1c2c(c(O)c3c1=C(CO)C=N3)=NCCS2 | 0.317 | 0.381 | 2.5 | 1.74 | – | 0.43 µM | 0.774 µM | 0.175 | 0.166 µM | 0.761 | 0.325 | – | 0.191 | 0.346 µM | 1.2 | 0.235 µM
O=C(O)c1ccc(Oc2nccc(-c3c(-c4ccc(F)cc4)ncn3C3CCNCC3)n2)cc1 | > 25 | > 25 | – | > 25 | > 25 µM | > 25 µM | – | > 25 | > 25 µM | – | > 25 | > 25 | > 25 | > 25 µM | > 25 | –
NC1CCC(Nc2nc(NCc3ccc(-c4ccccc4O)nc3)c3ncn(C4CCCC4)c3n2)CC1 (stereo not drawn) | 0.623 | 1.14 | 0.077 | 0.429 | – | 0.01 µM | 1.35 µM | 0.0998 | 0.21 µM | 0.02 | 0.018 | – | < 0.01 | 0.036 µM | 0.431 | 0.0354 µM
O=C1NC(=O)C(c2ccccc2Cl)=C1Nc1cc(Cl)c(O)c(Cl)c1 | > 25 | > 25 | – | > 25 | > 25 µM | > 25 µM | – | 16.7 | 15 µM | – | 12 | 11.3 | 8.78 | 16.3 µM | > 25 | –
O=C(CCc1nnc2s/c(=C\c3ccc(Cl)c(Cl)c3)c(=O)n12)Nc1ccc(Cl)c(Cl)c1 | – | > 100 | > 100 | > 100 | 39 µM | 65.3 µM | 74 µM | – | – | – | – | – | – | – | > 100 | –
COc1ccc(/C(COc2ccc3c(=O)c(-c4ccccc4)coc3c2)=N\O)cc1 | 54.7 | 12.9 | 47 | 40.4 | > 45.9 µM | 20.6 µM | – | 8.27 | 0.349 µM | 8.83 | 1.5 | 4.73 | 4.65 | 10.1 µM | 29.5 | –
CC(=Nc1ccccc1)C1=C(O)C(Cc2ccc(O)cc2)NC1=O (stereo not drawn) | 1.12 | > 46.8 | > 100 | 1.31 | > 23.1 µM | – | – | 0.0577 | 0.0585 µM | 0.082 | 0.0472 | 0.152 | – | 0.162 µM | > 50 | 0.0283 µM
C=C(NC(=O)C(=C)NC(=O)c1csc(C2=NC3c4csc(n4)C4NC(=O)c5csc(n5)C(C(C)(O)C(C)O)NC(=O)C5CSC(=N5)C(=CC)NC(=O)C(C(C)O)NC(=O)c5csc(n5)C3(CC2)NC(=O)C(C)NC(=O)C(=C)NC(=O)C(C)NC(=O)C(C(C)CC)NC2C=Cc3c(C(C)O)cc(nc3C2O)C(=O)OC4C)n1)C(N)=O (stereo not drawn) | 4.71 | > 100 | – | 27.5 | > 100 µM | 4.76 µM | 69.1 µM | 2.1 | 65.6 µM | – | 5.52 | 3.7 | 2.07 | 54 µM | > 100 | –
O=C1c2ccccc2-c2oc(=O)c3ccccc3c21 | – | > 100 | > 100 | > 100 | > 100 µM | > 100 µM | – | – | – | – | – | – | – | – | > 100 | –
C/C(=N\Nc1cc(C)c2ccccc2n1)c1ccccn1 | 15.7 | 1.81 | – | 1.76 | 1.31 µM | 0.319 µM | 2.39 µM | 0.301 | < 0.0493 µM | – | 0.0789 | 0.0807 | 0.0534 | 0.119 µM | 8.38 | < 0.0293 µM
CNC(=S)NC(=O)c1c(Cl)n(C(=O)OC(C)(C)C)c2ccccc12 | > 100 | > 100 | 85.1 | > 100 | > 100 µM | 90.9 µM | – | 53.2 | 86 µM | 15.1 | 77.4 | 30 | 30.6 | > 100 µM | > 100 | –
Cc1cc(-c2nc3sccn3c2/C=N/N=C(N)N)c(C)s1 | 33.3 | 30 | – | 26.1 | 30.5 µM | 32 µM | – | 18.5 | 16.4 µM | – | 13.3 | 16.4 | 15.7 | 17.5 µM | 32.3 | –
NC[C@H]1Nc2ccccc2[C@@H](O)C1O (stereo partly drawn) | – | > 100 | > 100 | > 100 | > 100 µM | – | > 100 µM | – | – | – | – | – | – | – | > 100 | –
c1cc(N2CCCN(c3ccc(C4=NCCCN4)cc3)CC2)ccc1C1=NCCCN1 | > 100 | > 100 | > 100 | > 100 | > 100 µM | > 100 µM | – | > 100 | > 100 µM | > 100 | > 100 | > 100 | > 100 | – | – | –
